Experimental data from patent US10273313B2, “Multimeric mannosides, a process for preparing the same and their uses as a drug” (CENTRE NATIONAL DE LA RECHERCHE SCIENTIFIQUE, priority 2012, dated 2019).

Tests used:
[1] = test system: E. coli strain UTI89 expressing type-1 fimbriae; test: Bacterial crosslinking, epi-fluorescence microscopy; format: cell-based, Escherichia coli; details: acridin orange colored UTI89
Procedure: The possibility to capture living bacteria in solution with β-CD-based glycol-clusters 2 and 4, using epi-fluorescence microscopy was investigated.
It was decided to evaluate if the FimH aggregation evidenced in ITC, DLS and SAXS could also occur when the lectin is attached at the tip of the bacteria pili. E. coli strain UTI89 expressing type-1 fimbriae. Said bacteria were diluted from the culture medium into PBS and glyco-conjugated in a ten-fold dilution series of 2 or 4 were added. Bacterial cells were then colored with acridin orange.
100 μl of glycoconjugate-agglutinated E. coli were washed in 1 ml PBS, resuspended in 200 μl 0.1% acridin orange and left at room temperature for 2.5 hours. The bacterial cells were washed again in 1 ml PBS to remove unbound acridin orange. A microscope glass was rinsed with 100% EtOH and next dried at the air.

[2] = test system: AIEC LF82 bacteria in colonic loops of CEABAC10 mice expressing human CEACAM6; test: Adhesion assay in colonic loops of CEABAC10 mice; format: in vivo; details: dose of 0.1 μmol, 4 h incubation
Procedure: E. coli strain LF82 was isolated from a chronic ileal lesion of a patient with Crohn's disease (CD). Bacteria were grown routinely in Luria-Bertani (LB) broth overnight at 37° C.
The transgenic mouse model CEABAC10 expressing the human CEACAM6 protein is available in the UMR Inserm/Université d'Auvergne 1071 led by Professor Arlette Darfeuille-Michaud at Clermont-Ferrand. This model is particularly suitable to reproduce the abnormal colonization by AIEC bacteria through the interaction with CEACAM6 molecules that were observed abnormally expressed in the ileal mucosa of Crohn's disease patients.
Three colonic loops were realized in anesthetized CEABAC10 mice. A volume of 100 μl of a bacterial suspension containing 6×10^6 bacteria/mL with or without inhibitory compound was injected into the loops (here, compound 2, example 1) or heptyl-mannose at a concentration of 100 μM). After an incubation period of 4 h, mice were euthanized and each loop was longitudinally opened, extensively washed and homogenized to numerate adherent LF82 bacteria. Bacterial adhesion was expressed as percentages of residual adhesion (100% corresponds to the adhesion in absence of any compound).

[3] = test system: human Jurkat cells; test: Prevention of FimH-induced apoptosis of Jurkat cells (24 h)
Procedure: Eventually, we tested the ability of mannose-based inhibitors to prevent the induction of cell death of human Jurkat cells under the treatment with FimH. We cultures cells with the indicated compound for 24 h and counter percentage of viable (AnV−/Pi−), apoptotic (AnV+/Pi−) and necrotic cells (AnV+/PI+). […] 2. […] 3.
Apoptosis was induced by UV-B irradiation with 90 mJ/cm^2, apoptosis of human PMN cells was induced by 24 h aging. To quantify the rate of apoptosis, cells were analyzed by flow cytometry or fluorescent microscopy. Amongst other features, apoptosis is characterized by blebbing of the cellular membrane, leading to a decrease in the forward scatter (FSC) and an increase in the sideward scatter (SSC). For detection of phosphatidylserine (PS) exposure on the cell surface staining with FITC conjugated annexin V (Böhringer, Mannheim, Germany) in combination with propidium iodide (PI) (AxV/PI) was performed. 200.000 cells were stained for 30 minutes at 4° C. with 200 ng of AxV-FITC and 500 ng propidium iodide (PI) in 500 μl Ringer's solution [Nicoletti, Migliorati, Pagliacci, Grignani and Riccardi, A rapid and simple method for measuring thymocyte apoptosis by propidium iodide staining and flow cytometry. J Immunol Methods, 1991. 139.271-9]. The samples were immediately analyzed by flow cytometry of fluorescent microscopy.

[4] = biological target: FimH (Escherichia coli, UniProt P08191); details: Surface Plasmon Resonance (SPR); read-out: Dissociation constant of the HM-FimH complex; cited from earlier work
FimH, sequence (P08191 22-300): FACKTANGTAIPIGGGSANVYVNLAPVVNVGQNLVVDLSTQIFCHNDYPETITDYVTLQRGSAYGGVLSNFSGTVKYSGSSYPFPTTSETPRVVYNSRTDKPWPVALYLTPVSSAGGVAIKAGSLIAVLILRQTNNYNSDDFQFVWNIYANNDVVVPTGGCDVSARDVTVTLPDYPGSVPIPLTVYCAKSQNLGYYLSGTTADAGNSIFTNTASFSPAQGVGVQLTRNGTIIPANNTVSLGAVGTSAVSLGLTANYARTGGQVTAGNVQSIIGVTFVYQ

Row | Structure (SMILES) | Bacterial clustering in solution [1] | Bacterial adhesion in colonic loops compared with no inhibitor [2] | Toxicity to Jurkat cells [3] | Prevention of apoptosis induction by FimH ([3]; 10 nM) | Prevention of apoptosis induction by FimH ([3]; 100 nM) | Kd [4] [nM]
1 | OCC1OC(OCCCCCCCOCc2cn(CC3OC4OC5C(Cn6cc(COCCCCCCCOC7OC(CO)C(O)C(O)C7O)nn6)OC(OC6C(Cn7cc(COCCCCCCCOC8OC(CO)C(O)C(O)C8O)nn7)OC(OC7C(Cn8cc(COCCCCCCCOC9OC(CO)C(O)C(O)C9O)nn8)OC(OC8C(Cn9cc(COCCCCCCCOC%10OC(CO)C(O)C(O)C%10O)nn9)OC(OC9C(Cn%10cc(COCCCCCCCOC%11OC(CO)C(O)C(O)C%11O)nn%10)OC(OC%10C(Cn%11cc(COCCCCCCCOC%12OC(CO)C(O)C(O)C%12O)nn%11)OC(OC3C(O)C4O)C(O)C%10O)C(O)C9O)C(O)C8O)C(O)C7O)C(O)C6O)C(O)C5O)nn2)C(O)C(O)C1O (stereo not drawn) [Compound 2] | formation of bacterial clusters | two-fold decreased adhesion | not toxic | effectively prevented apoptosis induction | effectively prevented apoptosis induction | –
2 | CCCCCCCO[C@H]1O[C@H](CO)[C@@H](O)[C@H](O)[C@@H]1O [HM, Heptylmannoside, reference compound] | – | – | – | – | – | 5
